Assay results as given in patent US6737383B1, “Herbicidal oxadiazolidines” (priority 1999, dated 2004).

Assays:
bedstraw = assay: Test B pre/postemergence bedstraw; type: in vivo, Galium aparine
Method in brief: (§1)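 Herbicidal effect was estimated by eye on a ten-point control scale after plants spent twelve to sixteen days in a greenhouse following soil or foliar treatment. Foliar sprays targeted plants at one to four leaves; all doses were formulated in a non-phytotoxic solvent with surfactant.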

blackgrass = assay: Test B pre/postemergence blackgrass; type: in vivo, Alopecurus myosuroides
Method in brief: as §1

surinam grass = assay: Test B pre/postemergence surinam grass; type: in vivo, Brachiaria decumbens
Method in brief: as §1

cocklebur = assay: Test B pre/postemergence cocklebur; type: in vivo, Xanthium strumarium
Method in brief: as §1

corn = assay: Test B pre/postemergence corn; type: in vivo, Zea mays
Method in brief: as §1

crabgrass = assay: Test B pre/postemergence crabgrass; type: in vivo, Digitaria sanguinalis
Method in brief: as §1

giant foxtail = assay: Test B pre/postemergence giant foxtail; type: in vivo, Setaria faberii
Method in brief: as §1

morningglory = assay: Test B pre/postemergence morningglory; type: in vivo, Ipomoea hederacea
Method in brief: as §1

pigweed = assay: Test B pre/postemergence pigweed; type: in vivo, Amaranthus retroflexus
Method in brief: as §1

rape = assay: Test B pre/postemergence rape; type: in vivo, Brassica napus
Method in brief: as §1

soybean = assay: Test B pre/postemergence soybean; type: in vivo, Glycine max
Method in brief: as §1

sugar beet = assay: Test B pre/postemergence sugar beet; type: in vivo, Beta vulgaris
Method in brief: as §1

velvetleaf = assay: Test B pre/postemergence velvetleaf; type: in vivo, Abutilon theophrasti
Method in brief: as §1

wheat = assay: Test B pre/postemergence wheat; type: in vivo, Triticum aestivum
Method in brief: as §1

wild oat = assay: Test B pre/postemergence wild oat; type: in vivo, Avena fatua
Method in brief: as §1

purple nutsedge = assay: Test B pre/postemergence purple nutsedge; type: in vivo, Cyperus rotundus
Method in brief: as §1

[1] = Postemergence, Rate 62 g/ha, scale 0 to 10, 0 is no effect, 10 is complete control
[2] = Postemergence, Rate 125 g/ha, scale of 0 to 10 where 0 is no effect and 10 is complete control
[3] = Postemergence, Rate 500 g/ha, scale 0 (no effect) to 10 (complete control)
[4] = Preemergence, Rate 250 g/ha, scale 0 (no effect) to 10 (complete control)
[5] = Rate 62 g/ha, Preemergence, scale 0 to 10
[6] = Rate 125 g/ha, Preemergence, scale 0 to 10 (0 no effect, 10 complete control)
[7] = Rate 500 g/ha, Preemergence, scale 0 to 10 (0 no effect, 10 complete control)
[8] = Rate 250 g/ha, Postemergence, scale 0 to 10, 0 is no effect, 10 is complete control

`C#CCn1c(=O)on(C(=O)N(c2ccc(F)cc2F)C(C)C)c1=O` [Compound 764] was tested, and the “Plant response rating, Bedstraw” value (bedstraw; [1]) was 0, the “Bedstraw plant response rating” value (bedstraw; [2]) was 5 and the “Bedstraw plant response rating” value (bedstraw; [3]) was 5. For the same compound, the “Bedstraw plant response rating” value (bedstraw; [4]) was 5, the “Bedstraw plant response rating” value (bedstraw; [5]) was 0 and the “Bedstraw plant response rating” value (bedstraw; [6]) was 5. The “Bedstraw plant response rating” value (bedstraw; [7]) was 8, the “Plant response rating, Blackgrass” value (blackgrass; [1]) was 3 and the “Blackgrass plant response rating” value (blackgrass; [2]) was 6. The “Blackgrass plant response rating” value (blackgrass; [3]) was 8, the “Blackgrass plant response rating” value (blackgrass; [4]) was 8 and the “Blackgrass plant response rating” value (blackgrass; [5]) was 7. The “Blackgrass plant response rating” value (blackgrass; [6]) was 7, the “Blackgrass plant response rating” value (blackgrass; [8]) was 6 and the “Blackgrass plant response rating” value (blackgrass; [7]) was 9. The “Plant response rating, B. signalgrass” value (surinam grass; [1]) was 0, the “B. signalgrass plant response rating” value (surinam grass; [2]) was 0 and the “B. signalgrass plant response rating” value (surinam grass; Preemergence, Rate 62 g/ha, scale of 0 to 10 where 0 is no effect and 10 is complete control) was 8. The “B. signalgrass plant response rating” value (surinam grass; [4]) was 9, the “B. signalgrass plant response rating” value (surinam grass; [6]) was 7 and the “B. signalgrass plant response rating” value (surinam grass; [8]) was 2. The “B. signalgrass plant response rating” value (surinam grass; Rate 500 g/ha, Postemergence, scale 0 to 10, 0 is no effect, 10 is complete control) was 3, the “B. signalgrass plant response rating” value (surinam grass; [7]) was 10 and the “Plant response rating, Cocklebur” value (cocklebur; [1]) was 0. The “Cocklebur plant response rating” value (cocklebur; [2]) was 0, the “Cocklebur plant response rating” value (cocklebur; [3]) was 5 and the “Cocklebur plant response rating” value (cocklebur; [4]) was 0. For the same compound, the “Cocklebur plant response rating” value (cocklebur; [5]) was 0, the “Cocklebur plant response rating” value (cocklebur; [8]) was 2 and the “Cocklebur plant response rating” value (cocklebur; [7]) was 8. For the same compound, the “Plant response rating, Corn” value (corn; [1]) was 0, the “Corn plant response rating” value (corn; [2]) was 0 and the “Corn plant response rating” value (corn; [3]) was 4. The “Corn plant response rating” value (corn; [4]) was 6, the “Corn plant response rating” value (corn; [5]) was 0 and the “Corn plant response rating” value (corn; [6]) was 0. The “Corn plant response rating” value (corn; [8]) was 0, the “Corn plant response rating” value (corn; [7]) was 9 and the “Plant response rating, Crabgrass” value (crabgrass; [1]) was 0. The “Crabgrass plant response rating” value (crabgrass; [2]) was 6, the “Crabgrass plant response rating” value (crabgrass; [3]) was 9 and the “Crabgrass plant response rating” value (crabgrass; [4]) was 10. For the same compound, the “Crabgrass plant response rating” value (crabgrass; [5]) was 10, the “Crabgrass plant response rating” value (crabgrass; [6]) was 10 and the “Crabgrass plant response rating” value (crabgrass; [8]) was 9. The “Crabgrass plant response rating” value (crabgrass; [7]) was 10, the “Plant response rating, Giant foxtail” value (giant foxtail; [1]) was 3 and the “Giant foxtail plant response rating” value (giant foxtail; [2]) was 7. The “Giant foxtail plant response rating” value (giant foxtail; [3]) was 8, the “Giant foxtail plant response rating” value (giant foxtail; [4]) was 10 and the “Giant foxtail plant response rating” value (giant foxtail; [5]) was 10. The “Giant foxtail plant response rating” value (giant foxtail; [6]) was 10, the “Giant foxtail plant response rating” value (giant foxtail; [8]) was 8 and the “Giant foxtail plant response rating” value (giant foxtail; [7]) was 10. The “Plant response rating, Morningglory” value (morningglory; [1]) was 1, the “Morningglory plant response rating” value (morningglory; [2]) was 1 and the “Morningglory plant response rating” value (morningglory; [3]) was 5. For the same compound, the “Morningglory plant response rating” value (morningglory; [4]) was 0, the “Morningglory plant response rating” value (morningglory; [5]) was 0 and the “Morningglory plant response rating” value (morningglory; [8]) was 2. The “Morningglory plant response rating” value (morningglory; [7]) was 2, the “Plant response rating, Redroot pigweed” value (pigweed; [1]) was 0 and the “Redroot pigweed plant response rating” value (pigweed; [2]) was 5. For the same compound, the “Redroot pigweed plant response rating” value (pigweed; [3]) was 7, the “Redroot pigweed plant response rating” value (pigweed; [4]) was 10 and the “Redroot pigweed plant response rating” value (pigweed; [5]) was 9. For the same compound, the “Redroot pigweed plant response rating” value (pigweed; [6]) was 10, the “Redroot pigweed plant response rating” value (pigweed; [8]) was 7 and the “Redroot pigweed plant response rating” value (pigweed; [7]) was 10. The “Plant response rating, Rape” value (rape; [1]) was 0, the “Rape plant response rating” value (rape; [2]) was 0 and the “Rape plant response rating” value (rape; [3]) was 7. For the same compound, the “Rape plant response rating” value (rape; [4]) was 9, the “Rape plant response rating” value (rape; [5]) was 0 and the “Rape plant response rating” value (rape; [6]) was 0. For the same compound, the “Rape plant response rating” value (rape; [8]) was 3, the “Rape plant response rating” value (rape; [7]) was 10 and the “Plant response rating, Soybean” value (soybean; [1]) was 1. The “Soybean plant response rating” value (soybean; [3]) was 4, the “Soybean plant response rating” value (soybean; [4]) was 3 and the “Soybean plant response rating” value (soybean; [5]) was 0. For the same compound, the “Soybean plant response rating” value (soybean; [6]) was 0, the “Soybean plant response rating” value (soybean; [8]) was 3 and the “Soybean plant response rating” value (soybean; [7]) was 5. The “Plant response rating, Sugarbeets” value (sugar beet; [1]) was 0, the “Sugarbeets plant response rating” value (sugar beet; [3]) was 7 and the “Sugarbeets plant response rating” value (sugar beet; [4]) was 5. For the same compound, the “Sugarbeets plant response rating” value (sugar beet; [5]) was 0, the “Sugarbeets plant response rating” value (sugar beet; [6]) was 0 and the “Sugarbeets plant response rating” value (sugar beet; [8]) was 3. The “Sugarbeets plant response rating” value (sugar beet; [7]) was 8, the “Plant response rating, Velvetleaf” value (velvetleaf; [1]) was 0 and the “Velvetleaf plant response rating” value (velvetleaf; [3]) was 4. For the same compound, the “Velvetleaf plant response rating” value (velvetleaf; [4]) was 5, the “Velvetleaf plant response rating” value (velvetleaf; [5]) was 3 and the “Velvetleaf plant response rating” value (velvetleaf; [6]) was 5. For the same compound, the “Velvetleaf plant response rating” value (velvetleaf; [8]) was 4, the “Velvetleaf plant response rating” value (velvetleaf; [7]) was 8 and the “Plant response rating, Wheat” value (wheat; [1]) was 0. For the same compound, the “Wheat plant response rating” value (wheat; [5]) was 0, the “Wheat plant response rating” value (wheat; [6]) was 3 and the “Wheat plant response rating” value (wheat; [8]) was 7. The “Wheat plant response rating” value (wheat; [7]) was 7, the “Plant response rating, Wild oats” value (wild oat; [1]) was 0 and the “Wild oats plant response rating” value (wild oat; [3]) was 3. The “Wild oats plant response rating” value (wild oat; [4]) was 6, the “Wild oats plant response rating” value (wild oat; [5]) was 0 and the “Wild oats plant response rating” value (wild oat; [6]) was 3. For the same compound, the “Wild oats plant response rating” value (wild oat; [8]) was 2, the “Wild oats plant response rating” value (wild oat; [7]) was 7 and the “Plant response rating, Nutsedge” value (purple nutsedge; [1]) was 0. For the same compound, the “Nutsedge plant response rating” value (purple nutsedge; [2]) was 0, the “Nutsedge plant response rating” value (purple nutsedge; [3]) was 3 and the “Nutsedge plant response rating” value (purple nutsedge; [4]) was 0. For the same compound, the “Nutsedge plant response rating” value (purple nutsedge; [5]) was 0, the “Nutsedge plant response rating” value (purple nutsedge; [6]) was 0 and the “Nutsedge plant response rating” value (purple nutsedge; [8]) was 0. The “Nutsedge plant response rating” value (purple nutsedge; [7]) was 4.
